{"source": "patent US8894993B2", "about": "“Mitochondria-targeted antioxidants” (Natreon Inc., priority 2006, dated 2014)", "assay_type_in_all_cases": "in vivo, Swiss albino mice", "key": {"[1]": {"tested_on": "Blood levels of ATP and energy related indices", "assay": "Blood ATP and energy related indices in mice after forced swimming stress", "description": "Swiss albino mice (20±2 g) were fed orally with—(a) 3,8-(OH)2-DBP and (b) 3-OH-DBP (each 25 mg/Kg b.w.), per day, for 7 days. In case of the controls, only vehicle (0.8% carboxymethyl cellulose in water) was administered for seven days of the experiment. The animals were subjected to ‘forced swimming’ for 30 minutes on the 7th day of the experiment [Pliakas, A. M., Carlson, R. R., Neve, R. L., Konradi, C., Nestler, E. J. and Carlezon, W. A. 2001. J. Neurosci., 21(18), 7397-7403]. Immediately after the swimming, blood was collected from all the animals for analysis of ATP and related nucleotides by HPLC [Smolenska, Z., Kaznowska, Z., Zarowny, D., Simmonds, H. A. and Smolenski, R. T. 1999. Rheumatology, 38, 997-1002; Komarova, S. V., Mosharov, E. V., Vitvitsky, V. M. and Ataullakhanov, F. I. 1999. Blood Cell Mol. Dis., 25(13), 170-179; Marquardt, D. L., Gruber, H. E. and Wasserman, S. I. 1984. Proc. Natl. Acad. Sci., 81, 6192-6196]. AEC (adenylate energy charge) was calculated according to the method of Atkinson and Walton [Atkinson D E & Walton G M, Adenosine triphosphate conservation in metabolic regulation, J Biol Chem, 242 (1967) 3239] and TAN (total adenine nucleotides) was calculated according to an established method [Spencer M K & Katz A, Role of glycogen in control of glycolysis and IMP formation in human muscle during exercise, Am J Physiol, 260 (1991) E859]."}, "[2]": {"tested_on": "Blood levels of ATP and energy related indices", "assay": "Blood ATP and energy related indices in mice after restraint stress", "details": "25 mg/Kg p.o. 7 days", "description": "(§1) Swiss albino mice (20±2 g) were fed orally with—(a) 3-OH-DBP and (b) 3,8-(OH)2-DBP (each 25 mg/Kg b.w. per day, for 7 days). In case of the controls, only vehicle (0.8% carboxymethyl cellulose in water) was administered for seven days of the experiment. All the animals of all the groups were subjected to restraint stress (for 60 minutes) on the seventh day of the experiment, 2 hours after drug administration, according to a published method [Figueiredo, H. F., Bodie, B. L., Tauchi, M., Dolgas, C. M. and Herman, J. P. 2003. Endocrinology, 144, 5249-5258]. The model was selected in the present experiment, because restraint stress is a widely used model of acute oxidative stress. Immediately after being exposed to stress, the animals were sacrificed, blood was collected for analysis by HPLC of ATP and related nucleotides [Smolenska, Z., Kaznowska, Z., Zarowny, D., Simmonds, H. A. and Smolenski, R. T. 1999. Rheumatology, 38, 997-1002; Komarova, S. V., Mosharov, E. V., Vitvitsky, V. M. and Ataullakhanov, F. I. 1999. Blood Cell Mol. Dis., 25(13), 170-179; Marquardt, D. L., Gruber, H. E. and Wasserman, S. I. 1984. Proc. Natl. Acad. Sci., 81, 6192-6196], and liver was collected for measurement of superoxide dismutase and catalase activities [Zielinski, S, and Pörtner, H. 2000. Comparative Biochem. Physiol. Part B, 125, 147-[60]. AEC (adenylate energy charge) was calculated according to the method of Atkinson and Walton [Atkinson D E & Walton G M, Adenosine triphosphate conservation in metabolic regulation, J Biol Chem, 242 (1967) 3239] and TAN (total adenine nucleotides) was calculated according to an established method [Spencer M K & Katz A, Role of glycogen in control of glycolysis and IMP formation in human muscle during exercise, Am J Physiol, 260 (1991) E859]."}, "[3]": {"tested_on": "Superoxide dismutase (SOD) activity in liver", "assay": "Superoxide dismutase activity in liver of mice after restraint stress", "details": "25 mg/Kg p.o. 7 days, control 0.6", "description": "as §1, with “Rheumatology, 38, 997-1002; Komarova, S. V., Mosharov, E. V., Vitvitsky, V. M. and Ataullakhanov, F. I. 1999. Blood Cell Mol. Dis., 25(13), 170-179; Marquardt, D. L., Gruber, H. E. and Wasserman, S. I. 1984. Proc. Natl. Acad. Sci., 81, 6192-6196], and liver was collected for measurement of superoxide dismutase and catalase activities [Zielinski, S, and Pörtner, H. 2000. Comparative Biochem. Physiol. Part B, 125, 147-[60].” left out, “E859]. […]” for “E859].”"}, "[4]": {"tested_on": "Catalase activity in liver", "assay": "Catalase activity in liver of mice after restraint stress", "details": "25 mg/Kg p.o. 7 days, control 3.9", "description": "as §1, with “Rheumatology, 38, 997-1002; Komarova, S. V., Mosharov, E. V., Vitvitsky, V. M. and Ataullakhanov, F. I. 1999. Blood Cell Mol. Dis., 25(13), 170-179; Marquardt, D. L., Gruber, H. E. and Wasserman, S. I. 1984. Proc. Natl. Acad. Sci., 81, 6192-6196], and liver was collected for measurement of superoxide dismutase and catalase activities [Zielinski, S, and Pörtner, H. 2000. Comparative Biochem. Physiol. Part B, 125, 147-[60].” left out, “E859]. […]” for “E859].”"}}, "data": [{"smiles": "O=c1oc2cc(O)ccc2c2ccccc12", "note": "[3-OH-DBP, 3-hydroxydibenzo-α-pyrone]", "values": [{"measurement": "content of ATP, AEC values and ATP/ADP ratio (in blood), in words", "setting": "[1]; albino mice engaged in forced swimming", "result": "significantly improved"}, {"measurement": "ATP", "setting": "[1]; blood, forced swimming, 25 mg/Kg p.o. 7 days, mean ± SEM of 6, control 0.60 ± 0.01", "result": "0.72 ± 0.03 µM"}, {"measurement": "TAN", "setting": "[1]; blood, forced swimming, 25 mg/Kg p.o. 7 days, mean ± SEM of 6, control 0.79 ± 0.01", "result": "0.90 ± 0.04", "unit": "µM"}, {"measurement": "AEC", "setting": "[1]; blood, forced swimming, 25 mg/Kg p.o. 7 days, mean ± SEM of 6, control 0.86 ± 0.003", "result": "0.89 ± 0.002"}, {"measurement": "ATP/ADP ratio", "setting": "[1]; blood, forced swimming, 25 mg/Kg p.o. 7 days, mean ± SEM of 6, control 3.84 ± 0.09", "result": "4.82 ± 0.09"}, {"measurement": "ADP", "setting": "[2]; mean ± SEM of 6, control 0.14 ± 0.02", "result": "0.09 ± 0.01", "unit": "µM"}, {"measurement": "ATP", "setting": "[2]; mean ± SEM of 6, control 0.67 ± 0.03", "result": "0.66 ± 0.04", "unit": "µM"}, {"measurement": "TAN", "setting": "[2]; mean ± SEM of 6, control 0.76 ± 0.03", "result": "0.79 ± 0.05 µM"}, {"measurement": "AEC", "setting": "[2]; mean ± SEM of 6, control 0.89 ± 0.01", "result": "0.90 ± 0.01"}, {"measurement": "ATP/ADP ratio", "setting": "[2]; mean ± SEM of 6, control 4.90 ± 0.32", "result": "7.04 ± 0.38"}, {"measurement": "SOD activity in liver", "setting": "[3]", "result": 0.91, "unit": "U/gm tissue"}, {"measurement": "Catalase activity in liver", "setting": "[4]", "result": 3.5, "unit": "U/mg tissue"}]}]}
